Measured values as given in patent US7208572B2, “Leptin-related peptides” (Albany Medical College, priority 1998, dated 2007).
Marks after values point to notes of the source that are not given here. Square brackets hold non-standard residues; d marks the D form. Ends that are not written are not given here. Peptide text beside a SMILES is read from it.

T1: OB-Ra (Mus musculus, UniProt P48356)
T1 construct: expressed in transfected cells; host or cells: COS-7
T1 sequence (P48356 22-894 isoform P48356-2 limits assumed): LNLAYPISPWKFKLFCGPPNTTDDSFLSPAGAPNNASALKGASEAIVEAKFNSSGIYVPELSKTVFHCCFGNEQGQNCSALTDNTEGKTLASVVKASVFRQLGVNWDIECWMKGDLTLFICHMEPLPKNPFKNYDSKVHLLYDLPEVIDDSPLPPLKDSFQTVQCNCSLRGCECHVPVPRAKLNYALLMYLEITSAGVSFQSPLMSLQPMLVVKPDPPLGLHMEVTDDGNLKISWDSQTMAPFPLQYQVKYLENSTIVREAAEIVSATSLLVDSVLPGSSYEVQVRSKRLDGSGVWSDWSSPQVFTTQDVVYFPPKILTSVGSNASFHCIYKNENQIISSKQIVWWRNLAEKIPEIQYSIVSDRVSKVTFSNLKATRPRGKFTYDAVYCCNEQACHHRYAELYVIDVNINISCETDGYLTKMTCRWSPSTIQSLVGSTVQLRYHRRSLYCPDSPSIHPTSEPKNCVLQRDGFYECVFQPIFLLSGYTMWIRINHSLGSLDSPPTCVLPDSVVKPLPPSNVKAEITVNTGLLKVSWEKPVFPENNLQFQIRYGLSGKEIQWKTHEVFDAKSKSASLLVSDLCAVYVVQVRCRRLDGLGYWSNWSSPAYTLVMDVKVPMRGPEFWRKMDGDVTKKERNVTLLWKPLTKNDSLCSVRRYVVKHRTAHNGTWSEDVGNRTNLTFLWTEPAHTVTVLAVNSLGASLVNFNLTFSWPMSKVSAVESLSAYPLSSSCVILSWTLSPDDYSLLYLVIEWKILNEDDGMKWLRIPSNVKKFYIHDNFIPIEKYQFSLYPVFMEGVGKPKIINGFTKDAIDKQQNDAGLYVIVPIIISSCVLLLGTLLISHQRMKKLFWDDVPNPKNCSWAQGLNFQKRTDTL

T2: OB-Rb (Mus musculus, UniProt P48356)
T2 construct: full-length leptin receptor (OB-Rb), the receptor isoform predominantly expressed in the hypothalamus; expressed in transfected cells; host or cells: GT1-7
T2 sequence (P48356 22-1162): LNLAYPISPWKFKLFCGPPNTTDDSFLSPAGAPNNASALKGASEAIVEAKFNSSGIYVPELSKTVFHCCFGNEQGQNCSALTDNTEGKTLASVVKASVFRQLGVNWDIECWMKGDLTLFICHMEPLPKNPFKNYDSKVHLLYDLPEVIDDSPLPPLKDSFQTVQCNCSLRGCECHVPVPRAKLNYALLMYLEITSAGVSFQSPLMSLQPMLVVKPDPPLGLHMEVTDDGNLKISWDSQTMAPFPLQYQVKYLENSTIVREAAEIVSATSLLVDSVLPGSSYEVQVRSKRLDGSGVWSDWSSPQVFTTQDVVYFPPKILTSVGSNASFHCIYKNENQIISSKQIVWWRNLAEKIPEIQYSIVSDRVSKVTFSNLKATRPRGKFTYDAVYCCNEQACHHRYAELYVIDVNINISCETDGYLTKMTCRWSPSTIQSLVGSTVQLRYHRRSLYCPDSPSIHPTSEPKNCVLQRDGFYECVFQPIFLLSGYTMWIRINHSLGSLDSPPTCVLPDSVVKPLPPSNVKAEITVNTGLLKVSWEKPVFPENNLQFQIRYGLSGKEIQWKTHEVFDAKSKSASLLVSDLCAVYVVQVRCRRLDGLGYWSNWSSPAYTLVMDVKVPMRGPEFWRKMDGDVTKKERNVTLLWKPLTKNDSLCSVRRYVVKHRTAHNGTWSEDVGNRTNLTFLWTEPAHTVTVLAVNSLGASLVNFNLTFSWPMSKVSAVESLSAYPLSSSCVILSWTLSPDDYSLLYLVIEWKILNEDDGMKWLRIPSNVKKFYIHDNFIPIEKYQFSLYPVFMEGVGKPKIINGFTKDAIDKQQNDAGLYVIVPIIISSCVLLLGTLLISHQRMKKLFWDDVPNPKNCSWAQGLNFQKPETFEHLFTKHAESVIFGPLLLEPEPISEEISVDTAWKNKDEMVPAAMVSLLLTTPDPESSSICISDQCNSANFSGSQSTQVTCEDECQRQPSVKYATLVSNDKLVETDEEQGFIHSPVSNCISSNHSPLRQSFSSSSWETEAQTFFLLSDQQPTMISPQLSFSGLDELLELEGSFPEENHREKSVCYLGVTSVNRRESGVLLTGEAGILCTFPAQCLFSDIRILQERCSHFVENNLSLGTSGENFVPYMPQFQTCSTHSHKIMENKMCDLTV

B1: mouse leptin: recombinant mouse leptin used as positive control in binding and SEAP assays (protein, listed as Mus musculus)
chain: MCWRPLCRFLWLWSYLSYVQAVPIQKVQDDTKTLIKTIVTRINDISHTQSVSAKQRVTGLDFIPGLHPILSLSKMDQTLAVYQQVLTSLPSQNVLQIANDLENLRDLLHLLAFSKSCSLPQTSGLQKPESLDGVLEASLYSTEVVALSRLQGSLQDILQQLDVSPEC

Experiments:
[1] = Epitope mapping: body weight and food intake in female C57BL/6J ob/ob mice, 7 daily ip injections; type: in vivo, mouse; settings: for Cumulative food intake / Percent heavier (+) or lighter (−) than initial weight / Weight gain (+) or loss (−): 1 mg/day ip; for Cumulative food intake / Percent heavier (+) or lighter (−) than initial weight / Weight gain (+) or loss (−) / Reduction of food intake / Food intake vs vehicle: 7 days; for Reduction of food intake / Weight loss: 1 mg daily; for Weight loss: after 7 days
Procedure: Animal procedures. Feeding and weighing schedules, as well as peptide administration protocols, are as described in EXAMPLE 8, supra.
Statistical analysis. Changes in body weight and differences in food intake between peptide-treated and vehicle-injected control mice were analyzed by analysis of variance (ANOVA) and considered significant when P<0.05.
Female ob/ob mice (n=6 per group) were given a single ip injection of 0.2 ml of vehicle (PBS, pH 7.2) or leptin-related synthetic peptide amide in 0.2 ml PBS for 7 consecutive days. Daily changes in body weight compared to pretreatment weights in both vehicle-injected control and peptide-treated mice are shown in FIG. 4. […] There was no evidence of weight loss in response to peptide treatment.

[2] = 28-day ip study of body weight and food intake in female C57BL/6J ob/ob mice; type: in vivo, mouse; settings: 1 mg per day ip, 28 days
Source text: In order to examine this possibility, six overlapping peptide amides, which corresponded to amino acid residues 106 to 167 of mouse leptin, were synthesized and their effects on body weight and food intake in female C57BL/6J ob/ob mice were subsequently assessed.

[3] = Short-term (7-day) toxicity study in female C57BLK/6-m wild type mice; settings: 1 mg/day ip, 7 days
Procedure: Methods: OB3, [D-Leu-4]-OB3, hOB3 or vehicle was administered intraperitoneally once daily (1 mg/day, 7 days) to groups (n=6 mice per group) of C57BLK/6-m wild type mice of the same age as their obese (ob/ob or db/db) counterparts. The effects of the peptides on body weight gain, food and water intake, glucose homeostasis, serum insulin levels, and ability to thermoregulate were examined.

OB-Ra = biological target: T1, OB-Ra; assay: Inhibition of AP-OB fusion protein binding by COS-7 cells transfected with OB receptor; settings: 30 nM unlabelled mouse leptin
Source text: (§1) Initial experiments to determine the mechanism of action of LEP(116–130) utilized two highly sensitive in vitro bioassays routinely used to assess leptin binding and receptor activation (see e.g., White, et al., 1997. Proc. Natl. Acad. Sci. U.S.A. 94: 10657–10662). An alkaline phosphatase (“AP”)-leptin (“OB”) fusion protein (“AP-OB”) was used to measure inhibition of leptin binding in the absence or presence of recombinant mouse leptin (positive control) or peptide, by COS-7 cells transfected with the long (signaling) form of the mouse OB receptor (“OB-RL”). Signal transduction assays were done in GT1–7 cells cotransfected with AP reporter and OB-RL constructs. Secreted alkaline phosphatase (“SEAP”) activity in response to stimulation with mouse leptin or peptide was measured by chemiluminescence.
Two days after transfection, COS-7 cells were incubated with 1 nm human AP-OB fusion protein and bound AP activity was determined by chemiluminescence using the Great EscApe alkaline phosphatase detection kit as described by the manufacturer (CLON-TECH).
COS-7 cells were transfected with expression vector for OB-Ra. Two days after transfection, the cells were incubated with 1 nM human AB-OB fusion protein in the absence or presence of 30 nM mouse leptin, 300 μM LEP(116–130) or LEP(146–160). Bound AP activity was determined as has been described. See., e.g., Kamohara et al., 1997 Nature 389: 374–377.

OB-Rb = biological target: T2, OB-Rb; assay: SEAP reporter gene signal transduction assay in GT1–7 cells cotransfected with HRRE-SEAP and OB-Rb; type: cell-based; settings: 6 nM mouse leptin, 24 h
Source text: as §1
Two days after transfection, the cells were stimulated with mouse leptin or leptin-related synthetic peptides for 24 hours. Growth media were harvested and SEAP activity was determined by chemiluminescence as described for AP-OB binding studies.
COS-7 and GT1–7 cells were cultured in DMEM supplemented with 10% fetal bovine serum, and transfected by the lipofectamine method. […] Supernatants were collected and SEAP reporter activities were measured by chemiluminescence using the GreatEscApe alkaline phosphatase detection kit as described by the manufacturer (CLONTECH). […]

Molecule	Cumulative food intake [1]	Percent heavier (+) or lighter (−) than initial weight [1]	Weight gain (+) or loss (−) [1]	Weight gain and food intake vs vehicle [2]	Toxic effects [3]	also measured
D I L Q Q L D V S P E C (DILQQLDVSPEC; not fully specified (N-terminus)) [LEP(156–167)]	40.3 ± 0.6 gm/mouse	+22.6%	+5.7 g	continued to consume food and gain weight at a rate comparable to vehicle-injected control mice		
CC(C)C[C@@H](NC(=O)[C@H](CO)NC(=O)[C@H](CS)NC(=O)[C@@H](N)CO)C(=O)N1CCC[C@H]1C(=O)N[C@@H](CCC(N)=O)C(=O)N[C@H](C(N)=O)[C@@H](C)O [[D-Leu-4]-OB3, Ser-Cys-Ser-[D-Leu]-Pro-Gln-Thr] (H-SCS[dL]PQT-NH2)					no apparent toxic effects	
Q K P E S L D G V L E A S L Y (QKPESLDGVLEASLY; not fully specified (N-terminus)) [LEP(126–140)]	34.7 ± 1.3^b gm/mouse	−10.2%	−6.0^a g	significantly (P<0.01) restricted weight gain and food intake		Reduction of food intake [1]: 14.3%; Weight loss [1]: 10.2%; Food intake vs vehicle [1]: significantly (P=0.01) less than vehicle-injected control mice
SCHLPWA-NH2 [hOB3, S C H L P W A]					no apparent toxic effects	
E A S L Y S T E V V A L S R L (EASLYSTEVVALSRL; not fully specified (N-terminus)) [LEP(136–150)]	38.7 ± 1.6 gm/mouse	+25.6%	+5.4 g	continued to consume food and gain weight at a rate comparable to vehicle-injected control mice		
SCSLPQT-NH2 [OB3, Ser-Cys-Ser-Leu-Pro-Gln-Thr]					no apparent toxic effects	
D L L H L L A F S K S C S L P (DLLHLLAFSKSCSLP) [LEP(106–120)]	34.5 ± 1.1^b gm/mouse	−12.0%	−6.1^a g	significantly (P<0.01) restricted weight gain and food intake		Reduction of food intake [1]: 14.8%; Weight loss [1]: 12.0%; Food intake vs vehicle [1]: significantly (P=0.01) less than vehicle-injected control mice
B1						Competition of bound AP-OB (OB-Ra): efficiently competed; Increase in SEAP activity (OB-Rb): 11 fold
